How the values were obtained:
rabbit uterus = test: Anti-McGinty and anti-Clauberg assays; type: in vivo; settings: average of anti-McGinty and anti-Clauberg results relative to CDB-2914 = 1.00
Procedure, shortened: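 Immature female rabbits were primed with 5 μg estradiol s.c. daily for 6 days. Anti-McGinty: compound given intraluminally into a ligated uterine segment, with progesterone 267 μg/day s.c. for 3 days. Anti-Clauberg: compound oral or s.c. with progesterone 160 μg/day for 5 days. Histological endometrial proliferation inhibition, averaged over both assays, is given relative to CDB-2914.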

T47Darom cells = test: Crystal violet cell proliferation assay in aromatase-overexpressing T47D cells; type: cell-based; settings: Homo sapiens, 96 h, 4 μM alone, 4 days
From the text: Untreated cells were used as a control. The crystal violet assay was used to measure cell proliferation. The dye in this assay, crystal violet, stains DNA. Upon solubilization, the amount of dye taken up by the cells can be quantitated in a spectrophotometer.

[1] = target: T1, glucocorticoid receptor (rbGR) (Oryctolagus cuniculus, UniProt P59667); test: Glucocorticoid receptor binding; parameters: species or system rabbit
T1 construct: cytosol containing PR or GR were prepared in TEGMD buffer; from tissue; host or cells: thymus of estradiol-primed immature rabbits (cytosol)
T1 sequence (P59667 1-772): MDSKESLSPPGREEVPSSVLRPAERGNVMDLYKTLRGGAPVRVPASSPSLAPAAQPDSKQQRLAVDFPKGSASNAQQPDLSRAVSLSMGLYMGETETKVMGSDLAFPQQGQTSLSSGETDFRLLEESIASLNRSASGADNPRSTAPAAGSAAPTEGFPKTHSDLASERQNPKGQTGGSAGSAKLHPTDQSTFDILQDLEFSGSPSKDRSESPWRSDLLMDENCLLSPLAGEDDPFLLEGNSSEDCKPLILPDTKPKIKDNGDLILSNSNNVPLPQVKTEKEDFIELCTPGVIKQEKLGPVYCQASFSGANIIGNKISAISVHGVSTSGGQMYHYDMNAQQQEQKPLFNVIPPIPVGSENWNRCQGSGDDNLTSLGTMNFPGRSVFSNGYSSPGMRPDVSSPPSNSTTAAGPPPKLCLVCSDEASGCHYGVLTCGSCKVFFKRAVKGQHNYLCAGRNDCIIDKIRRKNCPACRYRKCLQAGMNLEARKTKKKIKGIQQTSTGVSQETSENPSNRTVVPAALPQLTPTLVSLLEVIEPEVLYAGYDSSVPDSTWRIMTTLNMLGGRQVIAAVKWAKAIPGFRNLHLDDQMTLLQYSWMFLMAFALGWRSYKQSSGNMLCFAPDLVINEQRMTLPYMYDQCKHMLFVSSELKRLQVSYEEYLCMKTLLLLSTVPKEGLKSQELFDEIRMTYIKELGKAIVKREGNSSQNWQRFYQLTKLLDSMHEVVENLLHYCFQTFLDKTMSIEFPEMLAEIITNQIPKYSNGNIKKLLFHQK
Protocol: Certain antiprogestins were tested in receptor-binding assays for their ability to bind rabbit progesterone receptor (rbPR) and glucocorticoid receptor (rbGR). […] For PR binding, the cytosol was incubated with 6 nM 1,2-[^3H]progesterone (50.0 Ci/mmole) and competitors were added at concentrations from 2 to 100 nM. For binding to GR, the cytosol was incubated with 6 nM 6,7-[^3H]-dexamethasone (40 Ci/mmol) and test compounds were added at concentrations from 20 to 100 nM. After overnight incubation at 4° C., bound and unbound [^3H] steroids were separated by addition of dextran-coated charcoal and centrifugation at 2100×g for 15 min at 4
C. Supernatants containing the [3H]-steroid receptor complexes were decanted into vials containing 4 ml Optifluor (Packard Instrument Co.), vortexed, equilibrated in a liquid scintillation counter for 30 minutes and then counted for 2 minutes. […] The standards for the PR and GR assays were unlabeled progesterone and dexamethasone, respectively.

estrogen receptor (ER) = test: Expression of estrogen receptor in tumors (IHC); type: in vivo, rat; settings: 10 mg/kg
Protocol: (§1) The tumors that were evaluated for proliferation and apoptosis were also assessed for expression of estrogen and progesterone receptors by immunohistochemistry (IHC). The percentage of cells positive for ER and PR was determined and analyzed. Tumors were grouped into four different categories: tumors with 0% of cells expressing ER, tumors with 10% of cells expressing ER, tumors with 15 to 30% of cells expressing ER and tumors with 30-50% of cells expressing ER. In general, untreated tumors consistently expressed ER. Out of 12 tumors analyzed, all 12 expressed ER. Four out of these 12 tumors contained 30-50% ER-positive cells.

[2] = tested on: progesterone receptor (PR); test: Expression of progesterone receptor in tumors (IHC); type: in vivo, rat; settings: 10 mg/kg
Protocol: as §1
Untreated tumors consistently expressed PR (12/12 tumors). In general, untreated tumors expressed both receptors, ER and PR, therefore it is possible that many malignant tumors are expressors of these two transcription factors. […] In general, long term treatment with CDB-4124 tends to drive down the level of PR in tumors, whereas progesterone tends to work in the opposite direction. Thus, tumors maintain progesterone responsiveness in the presence of progesterone.

PR expression in tumors (in words) [2]	Compound	rabbit Biol. Act. (rabbit uterus)	inhibition at 4 µM (T47Darom cells)	anti-glucocorticoid receptor activity / glucocorticoid receptor binding (in words) [1]	number of cells expressing ER in tumors (in words) (estrogen receptor (ER))
	COCC(=O)[C@@]1(OC(C)=O)CC[C@H]2[C@@H]3CCC4=CC(=O)CCC4=C3[C@@H](c3ccc(N(C)C)cc3)C[C@@]21C [CDB-4124, 21-methoxy-17α-acetoxy-11β-(4 N,N-dimethylaminophenyl)-19-norpregna-4,9-diene-3,20-dione]	3.60	< 30%		
neutral for PR	CC#C[C@]1(O)CC[C@H]2[C@@H]3CCC4=CC(=O)CCC4=C3[C@@H](c3ccc(N(C)C)cc3)C[C@@]21C [RU 486, mifepristone, reference compound]			moderately active in glucocorticoid receptor binding	lowered the number of cells that express ERs
